In patent publication US20160045505A1, “COMPOUNDS AND COMPOSITIONS FOR THE TREATMENT OF PARASITIC DISEASES” (NOVARTIS AG, priority 2013, published 2016):

Tests used:
[1] = system: Trypanosoma brucei Lister 427 strain, bloodstream form; assay: Assay for proliferation of kinetoplastid parasite Trypanosoma brucei (Cell Titer Glo, 48 hours); type: cell-based; conditions: Trypanosoma brucei, T. brucei Lister 427 bloodstream form; read-out: T. brucei EC50
How it was run: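 Bloodstream-form T. brucei Lister 427 in HMI-9 medium was exposed to compound (DMSO vehicle) for 48 hours at 37° C, 5% CO2. Parasite growth was read as ATP by CellTiter-Glo luminescence, with EC50 calculated from percent inhibition.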

[2] = system: Leishmania donovani axenic amastigote parasites; assay: Leishmania donovani axenic amastigote proliferation assay (Cell TiterGlo luminescence, 2 day incubation); type: cell-based; conditions: Leishmania donovani, L. donovani axenic amastigotes; read-out: L. donovani amastigotes EC50
[3] = system: Trypanosoma cruzi amastigotes (Tulahuen strain expressing Lac-Z) cultured in 3T3 fibroblast cells; assay: microbe, parasite or virus in culture; type: cell-based; conditions: Trypanosoma cruzi, TULAHUEN, Fibroblast, T. cruzi amastigotes in 3T3 fibroblast cells; read-out: T cruzi EC50
[4] = system: L. donovani HU3 strain in mouse peritoneal macrophages; assay: Assay for proliferation of Leishmania parasites in infected mouse peritoneal macrophages (SybrGreen staining, high-content imaging, 5 days); type: cell-based, Leishmania donovani; conditions: Leishmania donovani, Peritoneal macrophage, L. donovani in mouse peritoneal macrophages; read-out: L. donovani Macrophage EC50

Row | Structure (SMILES) | EC50 [1] [nM] | EC50 [2] [nM] | EC50 [3] [nM] | EC50 [4] [nM]
1 | CC(C)c1cnc2nc(-c3cc(NC(=O)N4CCC4)ccc3F)cn2c1 [Compound 411, N-(4-fluoro-3-(6-isopropylimidazo[1,2-a]pyrimidin-2-yl)phenyl)azetidine-1-carboxamide] | 22 | 83 | 46 | 154
2 | Cc1nc(C)c(C(=O)Nc2ccc(F)c(-c3cn4cc(C(C)C)cnc4n3)c2)o1 [Compound 412] | 40 | 46 | 48 | 134
3 | Cc1ncc(C(=O)Nc2ccc(F)c(-c3cn4cc(C(C)C)cnc4n3)c2)o1 [Compound 413] | 39 | 26 | 14 | 54
4 | CC(C)OC(=O)Nc1ccc(F)c(-c2cn3cc(C(C)C)cnc3n2)c1 [Compound 414] | 131 | 217 | 115 | 1160
5 | CC(C)c1cnc2nc(-c3cc(NC(=O)N4CC(F)C4)ccc3F)cn2c1 [Compound 415] | 12 | 28 | 44 | 114
6 | CC(C)c1cnc2nc(-c3cc(NC(=O)N4CC(F)(F)C4)ccc3F)cn2c1 [Compound 416] | 41 | 30 | 47 | 93
7 | CC(C)c1cnc2nc(-c3cc(NC(=O)N(C)C)ccc3F)cn2c1 [Compound 417] | 145 | 250 | 135 | 1300
8 | CC(C)c1cnc2nc(-c3cc(NC(=O)N4CC[C@@H](F)C4)ccc3F)cn2c1 [Compound 418] | 8 | 29 | 15 | 71
9 | Cc1nc(C)c(C(=O)Nc2ccc(F)c(-c3cn4cc(C(C)c5ccccc5)cnc4n3)c2)o1 (centres unmarked) [Compound 420] | 520 | 830 | 307 | 1090
10 | Cc1nc(C)c(C(=O)Nc2ccc(F)c(-c3cn4cc(C5CCCC5)cnc4n3)c2)o1 [Compound 422] | 33 | 126 | 193 | 305
11 | CCc1cnc2nc(-c3cc(NC(=O)c4oc(C)nc4C)ccc3F)cn2c1 [Compound 423] | 35 | 90 | 48 | 217
12 | Cc1ncc(C(=O)Nc2ccc(F)c(-c3cn4cc(C5CCOCC5)cnc4n3)c2)o1 [Compound 424] | 54 | 56 | 118 | 164
13 | Cc1nc(C)c(C(=O)Nc2ccc(F)c(-c3cn4cc(C5CCN(C(=O)OC(C)(C)C)CC5)cnc4n3)c2)o1 [Compound 425, tert-butyl 4-(2-(5-(2,4-dimethyloxazole-5-carboxamido)-2-fluorophenyl)imidazo[1,2-a]pyrimidin-6-yl)piperidine-1-carboxylate] | 97 | 140 | 50 | 198
14 | Cc1nc(C)c(C(=O)Nc2ccc(F)c(-c3cn4cc(-c5cn(C)cn5)cnc4n3)c2)o1 [Compound 426, N-(4-fluoro-3-(6-(1-methyl-1H-imidazol-4-yl)imidazo[1,2-a]pyrimidin-2-yl)phenyl)-2,4-dimethyloxazole-5-carboxamide] | 378 | 16 | 124 | 182
15 | Cc1nc(C)c(C(=O)Nc2ccc(F)c(-c3cn4cc(-c5nccn5C)cnc4n3)c2)o1 [Compound 427] | 163 | 237 | 1330 | 438
16 | Cc1nc(C)c(C(=O)Nc2ccc(F)c(-c3cn4cc(-c5cn(C(C)C)cn5)cnc4n3)c2)o1 [Compound 428] | 161 | 100 | 451 | 291

Row | Structure (SMILES) | EC50 [1] [nM] | EC50 [2] [nM] | EC50 [3] [nM] | EC50 [4] [nM]
17 | Cc1nc(C)c(C(=O)Nc2ccc(F)c(-c3cn4cc(-c5ncc(F)cc5C)cnc4n3)c2)o1 [Compound 430, N-(4-fluoro-3-(6-(5-fluoro-3-methylpyridin-2-yl)imidazo[1,2-a]pyrimidin-2-yl)phenyl)-2,4-dimethyloxazole-5-carboxamide] | 52 | 31 | 10 | 59
18 | Cc1nc(C)c(C(=O)Nc2ccc(F)c(-c3cn4cc(-c5ccc(F)cn5)cnc4n3)c2)o1 [Compound 431] | 149 | 79 | 46 | 845
19 | CNc1ccc(-c2cnc3nc(-c4cc(NC(=O)c5oc(C)nc5C)ccc4F)cn3c2)nc1 [Compound 432] | 18 | 12 | 21 | 33
20 | Cc1nc(C)c(C(=O)Nc2ccc(F)c(-c3cn4cc(-c5cccc(C(N)=O)n5)cnc4n3)c2)o1 [Compound 433] | 494 | 1810 | > 20000 | > 50000
21 | Cc1nc(C)c(C(=O)Nc2ccc(F)c(-c3cn4cc(-c5cccc(F)n5)cnc4n3)c2)o1 [Compound 434] | 160 | 107 | 42 | 924
22 | Cc1nc(C)c(C(=O)Nc2ccc(F)c(-c3cn4cc(-c5cc(F)ccn5)cnc4n3)c2)o1 [Compound 435] | 42 | 19 | 16 | 49
23 | Cc1nc(C)c(C(=O)Nc2ccc(F)c(-c3cn4cc(-c5ccc(F)nc5)cnc4n3)c2)o1 [Compound 436] | 72 | 77 | 50 | 1720
24 | CC(=O)c1ccc(-c2cnc3nc(-c4cc(NC(=O)c5oc(C)nc5C)ccc4F)cn3c2)cn1 [Compound 437] | 403 | 80 | 682 | 1250
25 | Cc1nc(C)c(C(=O)Nc2ccc(F)c(-c3cn4cc(-c5cncc(C(C)C)c5)cnc4n3)c2)o1 [Compound 438] | 109 | 141 | 146 | 282
26 | Cc1cnc(F)c(-c2cnc3nc(-c4cc(NC(=O)c5oc(C)nc5C)ccc4F)cn3c2)c1 [Compound 439] | 121 | 108 | 89 | 754
27 | Cc1cncc(-c2cnc3nc(-c4cc(NC(=O)c5oc(C)nc5C)ccc4F)cn3c2)c1 [Compound 440] | 315 | 119 | 238 | 200
28 | Cc1ccc(-c2cnc3nc(-c4cc(NC(=O)c5oc(C)nc5C)ccc4F)cn3c2)cn1 [Compound 441] | 309 | 97 | 141 | 912
29 | Cc1nc(C)c(C(=O)Nc2ccc(F)c(-c3cn4cc(-c5cnccc5C)cnc4n3)c2)o1 [Compound 442] | 55 | 87 | 48 | 208
30 | Cc1nc(C)c(C(=O)Nc2ccc(F)c(-c3cn4cc(-c5cncc(F)c5)cnc4n3)c2)o1 [Compound 443] | 34 | 81 | 103 | 146
31 | Cc1nc(C)c(C(=O)Nc2ccc(F)c(-c3cn4cc(-c5ccncc5F)cnc4n3)c2)o1 [Compound 444] | 25 | 86 | 50 | 183
32 | Cc1ccc(-c2cnc3nc(-c4cc(NC(=O)c5oc(C)nc5C)ccc4F)cn3c2)nc1 [Compound 445] | 31 | 12 | 14 | 688
